The nature of data set [1]: in vitro. To be noted: monkey, microsomes.
Data set [2] has as its system APP/PS1 TG mice. Put plainly: Y-maze, prophylactic trial. Format: in vivo, mouse. To be noted: PO 100 mg/kg/day, 5 to 12 months of age.
The test system of data set [3] is APP/PS1 TG mice. Put plainly: Morris water maze, prophylactic trial. Format: in vivo, mouse. To be noted: TG mice. On the procedure:
Behavioral tests were performed in the following sequence: Y-maze (day 1), Morris water maze (day 4 to 12) and contextual fear conditioning (day 26 to 27). To reduce stress, contextual fear conditioning was carried out 2 weeks after the Morris water maze task. In the therapeutic trial, APP/PS1 TG mice were treated with KMS88009 (30 mg/kg/day) for 3 months from 9 to 12 months of age. Y-maze tests short-term spatial working memory. Y-maze is a 3-armed (40 L×10 W×12 H cm) horizontal maze in which the arms are symmetrically disposed at 120° angles from each other. Mice were placed at the end of one arm and allowed to move freely through the maze during a 5-min session. Arm entry was considered completed when the hind paws of the mouse were completely placed in the arm. Alternation was defined as successive entries into the 3 arms on overlapping triplet sets. The series of arm entries was recorded via video recorders. The percentage of alternation was defined according to the following equation: % alternation = [(number of alternations)/(total arm entries - 2)] ×100. Mice performing fewer than 7 alternations in 5 min were excluded from the subsequent analysis to accurately determine alternation scores. Morris water maze was used to measure spatial learning and memory. A stainless pool apparatus with a diameter of 120 cm was used. A clear escape platform (circle, 12×12 cm) was located 1.0 cm below (hidden) the water surface containing white nontoxic paint. The temperature of water was kept constant throughout the experiment (21±1°C). The visual cues, for mice to recognize the environment and direction, are placed on the walls around the pool. The training was consisted of 8 consecutive days of testing with 4 trials per day. When a mouse was located on the escape platform, it was permitted to remain on the platform for 15 sec. […] Then the subject was returned to its home cage and allowed to dry up after each trial. The platform location was kept constant and the starting position was varied. Each mouse was placed in the water with their nose pointing toward the wall at one of the starting points in a random manner. During each trial session, the time taken to find the hidden platform (latency) was recorded using a video camera-based Ethovision System (Nodulus, Nertherlands). On the 9th day, each mouse was tested on a probe trial. The platform was removed from pool and the mice were allowed to swim for 60 sec to search. Swimming time was recorded during mice were in the pool quadrant where the platform had been previously located. Mice, which float or jump from platform, were eliminated from the experiment since these responses may be incompatible with the behaviors needed to locate and learn the platform position. In addition, animals with difficulty in swimming were also excluded from this study. Fear conditioning task was measured to test the ability to learn and remember an association between an aversive experience and environmental cues. Contextual fear conditioning evaluation was performed using a fear-conditioning chamber (Courlbourn, USA) equipped with a computer-controlled fear conditioning system (FreActimetrics, USA). On the first day of training, each mouse was placed in the conditioning chamber and left to adjust for 2 min. Fear conditioning test was performed with conditional stimulus (CS) of sound (75 dB) for 20 sec followed by unconditional stimulus (US) of electric foot-shock (0.5 mA) for the last 2 sec in CS. After 1 min, the subject was returned to its home cage. After 24 hr, retention test was performed. […] Freezing response was measured without CS or US. Freezing behavior was defined as the complete absence of any movement except for respiration and heartbeat. Animals with no response to the foot-shock during training were excluded from the analysis. Data analyses including recordings of all behavioral responses were performed by keeping research colleagues blind.

One may read the half-life as the time needed for the level to fall by half in the phase considered. Read a low half-life as rapid decline. As usually defined, the share remaining is what is left of the initial amount, in per cent. Read a high share remaining as less turnover. Regarding `C[C@]12CC[C@H]3[C@@H](CCC4=CC(=O)CC[C@@]43C)[C@@H]1CC[C@@H]2O` [Testosterone, reference compound], in data set [1], the half-life at 5 µM was 23.4 ± 0.5 min and the amount remaining at 1 h, 5 µM came to 16 ± 0.4%.
Consider `O[C@H]1[C@H](O)[C@@H](O)[C@H](O)[C@@H](O)[C@@H]1O` [Scyllo-inositol, reference compound], for which the “frequency of spontaneous alternation (Y-maze)” value in data set [2] worked out at 70.0%. Also, the “Latency (hidden platform)” value came out at 49.1 ± 2.4 s in data set [3] (Day 1, dose group +++ (100 mg/kg/day)); 43.1 ± 2.6 s in data set [3] (Day 2, dose group +++ (100 mg/kg/day)); 44.7 ± 4.2 s in data set [3] (Day 3, dose group +++ (100 mg/kg/day)); 37.5 ± 4.0 s in data set [3] (Day 4, dose group +++ (100 mg/kg/day)); 44.6 ± 3.3 s in data set [3] (Day 5, dose group +++ (100 mg/kg/day)); 39.0 ± 4.3 s in data set [3] (Day 6, dose group +++ (100 mg/kg/day)). Also, the “Latency (hidden platform)” value in data set [3] (Day 7, dose group +++ (100 mg/kg/day)) was 38.4 ± 4.4 s; in data set [3] (Day 8, dose group +++ (100 mg/kg/day)) it was 37.2 ± 4.3 s.

(Values after PMC3997483, “Aminostyrylbenzofuran Directly Reduces Oligomeric Amyloid-β and Reverses Cognitive Deficits in Alzheimer Transgenic Mice” (PLoS ONE, 2014).)
